From article PMC5931191, “Reversible stapling of unprotected peptides via chemoselective methionine bis-alkylation/dealkylation” (Chemical Science, 2018)
“Also recorded” adds a separate entry of the source. Each block holds one molecule with its values, some of them ahead of it. Where a SMILES comes first, the peptide text is derived from it.

Experiments:
[1] = test system: trypsin; assay: In vitro trypsin digestion assay; conditions: peptide 1 mM in PBS pH 7.4, 100 µL + 1 µL trypsin (1 mg/mL) (1%), 37 °C, different time intervals, LC/MS peak detection at 254 nm; compared with linear peptide 1; Fig. 3C
Protocol: LC-MS spectra were carried out on SHIMAZU LC-MS 8030 (ESI-MS) in positive ion mode.
trypsin (1 mg/mL) was added and incubated at 37°C. At different time interval, the solution was mixed with 12%
trichloroacetic acid (H2O/CH3CN: 2:1) to inactivate the trypsin.
the peptide remaining was examined by LC/MS with a grace smart C18 250× 4.6mm column, using a 4% per minute
linear gradient from 10% to 70% acetonitrile over 15min. The amount of starting material left in each sample was

[2] = test system: U2OS cells; assay: LDH release assay
Protocol: concentration of 10 μM in FBS free medium and incubated with the cells for 4 hours at 37°C. After that, the medium
was removed and the cells were gently washed 2 times with PBS and then fixed with 4% paraformaldehyde (Alfa
Aesar, MA) in PBS for 10 minutes. The cells were again washed 2 times with PBS and stained with 1μg/ml 4', 6-
diamidino-2-phenylindole (DAPI) (Invitrogen, CA) in PBS for 5 minutes. Images of peptide localization in cells were
taken on PerkinElmer confocal microscopy under the same parameters and processed using Volocity software package
LDH release was performed by using Cytotoxicity LDH Assay Kit-WST®. Briefly, ~10000 cells suspension was added
to each well of the 96 well plate and allowed to grow overnight. The cells were then incubated with the fresh medium
containing serial dilution of peptides at 37 °C for 4h. Lysis Buffer was added as positive control at 37 °C for 30min.
After that, 50μL of the incubation medium were taken out to another 96 well plate followed the addition of 50μL Working
Solution and incubated for 30min at room temperature. Then 25μL Stop Solution was added into the wells. The
absorbance at 490 nm was measured by a microplate reader (Perkin Elmer, Envision, 2104 Multilabel Reader). The
LDH release activity was calculated by (LDH% samples-LDH% blank) / (LDH% positive control -LDH% blank).

[3] = biological target: T1, Recombinant Human Caspase-3 protein (Homo sapiens, UniProt P42574); assay: In vitro caspase-3 AMC release assay; type: biochemical; conditions: peptide 5 µM, caspase-3 0.4 ng/µL, 1 h, read every 5 min, Ex 340 nm / Em 450 nm, triplicates; Fig. 5C
T1 construct: purchased RnD SYSTEMS
T1 sequence (P42574 29-175 limits assumed): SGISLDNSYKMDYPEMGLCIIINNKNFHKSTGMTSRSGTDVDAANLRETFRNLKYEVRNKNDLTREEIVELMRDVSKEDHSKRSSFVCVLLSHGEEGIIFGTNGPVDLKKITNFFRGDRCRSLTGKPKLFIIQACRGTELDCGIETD
T1 sequence (P42574 176-277 limits assumed): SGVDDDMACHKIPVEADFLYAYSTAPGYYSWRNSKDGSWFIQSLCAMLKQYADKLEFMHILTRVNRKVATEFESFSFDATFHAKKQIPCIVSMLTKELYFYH
Protocol: 8. AMC release Assays.
In vitro Caspase-3 assay:
(§1) AMC conjugated peptides 16-19 (50 μL, 5μM)
All experiments were performed in triplicates with […]
blank control) to induce the activity of caspase-3. […]
(§2) collected by centrifugation.
(§3) Besides, an induced well pretreated with the caspase pan-

[4] = Dealkylation of cyclic peptides with 2-mercaptopyridine (regeneration of linear peptide); type: physicochemical; conditions: chemical stability under reductive conditions; 2-mercaptopyridine (10 equiv., 10 mM) in PBS pH 7.4, 37 °C, different time points, HPLC / LC-MS; Fig. 3A, B
Protocol: in linear gradient mixtures.
1. Preparation of alkylated sulfonium peptides[1]
The alkylated reagent (1.2 equiv)
Then the solution was purified by reversed […]
peptide can be gradually regenerated to the linear peptide.
To 100 µL of each solution 1 µL […]
linear gradient from 10% to 70% acetonitrile over 15min. […]
quantified by LC/MS-based peak detection at 254nm.
4. Flow Cytometry Analysis
T47D cells were seeded in
37°C), washed with PBS, and resuspended in PBS. […]
cytometer (Becton Dickinson) and CellQuest Pro (or CFlow plus).

[5] = test system: HeLa cells; assay: Flow cytometry cellular uptake in HeLa cells; type: cell-based
[6] = test system: U2OS cells; assay: Flow cytometry cellular uptake in U2OS cells; type: cell-based; conditions: FITC-labelled peptides 10 µM, 4 h, 37 °C, FACS, Fig. S4 (legend not available)
[7] = biological target: T2, caspase-3 in U2OS cell lysates (Homo sapiens, UniProt P42574); assay: AMC release assay in U2OS cell lysate; type: biochemical; conditions: peptide 5 µM, 24 h, Fig. 5D
T2 construct: endogenous in cells; host or cells: U2OS cells, ABT-737-induced, lysed
T2 sequence (P42574 29-175 limits assumed): T1 sequence (P42574 29-175 limits assumed)
T2 sequence (P42574 176-277 limits assumed): T1 sequence (P42574 176-277 limits assumed)
Protocol: 8. AMC release Assays. […]
as §1
All experiments were performed in triplicates with
blank control) to induce the activity of caspase-3.
as §2, §3

[8] = test system: U2OS cells; assay: AMC release (caspase-3) assay in live U2OS cells; type: cell-based; conditions: ABT-737 10 µM 1 h, peptide 5 µM, after incubation for 12 hours, Fig. S9
Protocol: (§4) experiments were performed in triplicates with consistent results.
(§5) 100μl U2OS cells were cultured in 96 well plate (~5000 cells / well) overnight, then 0.1 μl of ABT-737 stock solution (10 mM, 1 h) was added into half of the wells to induce apoptosis. After that, peptide 16, 17i, 18i, and 19 stock solution (final concentration of 5 µM) were added into the cells. At different time points, the fluorescence of the wells treated […]
(§6) difference in fluorescence yields between ABT-737 treated and untreated cells was plotted as a function of time to represent the caspase-3 activities in live cells.
(§7) U2OS cells were cultured in 24 well plates with imaging dishes (50000 cells/well) and then treated with peptide 17i, 18i and 19 (100µM) in FBS free medium for 4h. Then the medium was removed and the cells were cultured with a fresh medium containing 10mM GSH for 8h, 16h, or 24h. The release efficiency of AMC was monitored using fluorescence microscopy with pseudo-colored in blue as described.
(§8) Table S1. Conversion of peptide 1 to peptide 1a in different solvents at different time intervals.
(§9) Table S2. Peptide sequences and observed masses following HPLC purification. Calculated and Found m/z are presented as [M+H] + / [M/2+H] +/ [M/3+H] +/ [M/4+H] +.
(§10) Peptide Sequence Calculated mass Observed mass
(§11) (1 picture or pasted object on this page, not shown here)

[9] = test system: U2OS cells; assay: Confocal microscopy of AMC release in U2OS cells; type: cell-based
Protocol: as §4, §5, §6, §7, §8, §9, §10, §11

Molecule: CC(=O)N[C@@H](Cc1c[nH]c2ccccc12)C(=O)N[C@H]1CC[S+](C)Cc2ccc(cc2)-c2ccc(cc2)C[S+](C)CC[C@@H](C(N)=O)NC(=O)[C@H](CC(=O)O)NC(=O)CNC(=O)[C@H](CCCNC(=N)N)NC1=O (some centres unmarked) [1i]
- trypsin stability (peptide remaining) [1]: significantly enhanced the trypsin stability

Molecule: CCCC[C@@H]1NC(=O)[C@H](CC(=O)O)NC(=O)[C@@H](NC(C)=O)CSCc2ccc(cc2)-c2ccc(cc2)CSC[C@H](C(=O)N[C@@H](CC(=O)O)C(=O)Nc2ccc3c(C)cc(=O)oc3c2)NC1=O [18i] (HELM PEPTIDE1{[ac].C.D.[Nle].[dC].D.[Cc1cc(=O)oc2cc(N[*:1])ccc12]}|CHEM1{[c1cc(-c2ccc(C[*:2])cc2)ccc1C[*:1]]}$PEPTIDE1,CHEM1,2:R3-1:R1|PEPTIDE1,CHEM1,5:R3-1:R2$$$V2.0)
- membrane toxicity (LDH release) ([2]; 160 µM, 4 h, 10% serum, Fig. S8): negligible membrane toxicity

- AMC release / susceptibility to caspase-3 in vitro [3]: quick degradation
Molecule: CCCC[C@H](NC(=O)[C@H](CC(=O)O)NC(=O)[C@H](CCSC)NC(C)=O)C(=O)N[C@@H](CCSC)C(=O)N[C@@H](CC(=O)O)C(=O)Nc1ccc2c(C)cc(=O)oc2c1 [compound 17] (HELM PEPTIDE1{[ac].M.D.[Nle].M.D.[Cc1cc(=O)oc2cc(N[*:1])ccc12]}$$$$V2.0)

- membrane lysis effect ([2]; Fig. S7B (confocal, 100 µM) and S8 (LDH release, 4 h, 10% serum)): membrane lysis effect
Molecule: CCCC[C@H](NC(=O)[C@H](CC(=O)O)NC(=O)[C@H](CCCNC(=N)N)NC(=O)[C@H](CCCNC(=N)N)NC(=O)[C@H](CCCNC(=N)N)NC(=O)[C@H](CCCNC(=N)N)NC(=O)[C@H](CCCNC(=N)N)NC(=O)[C@H](CCCNC(=N)N)NC(=O)[C@H](CCCNC(=N)N)NC(=O)[C@H](CCCNC(=N)N)NC(=O)[C@H](CCCNC(=N)N)NC(C)=O)C(=O)N[C@@H](CC)C(=O)N[C@@H](CC(=O)O)C(=O)Nc1ccc2c(C)cc(=O)oc2c1 [compound 19] (HELM PEPTIDE1{[ac].R.R.R.R.R.R.R.R.R.D.[Nle].[Abu].D.[Cc1cc(=O)oc2cc(N[*:1])ccc12]}$$$$V2.0)

Molecule: Ac-W-(cyclo-d)-MRGDM-NH2 (sidechain bridge or staple) [1d, peptide 1 Met bis-alkylated with linker d]
- regeneration of the parental linear peptide 1 (dealkylation) [4]: time-dependent regeneration of the parental peptide 1

Molecule: FITC-βA-(cyclo-c)-MRRRM-NH2 (sidechain bridge or staple) [11c, peptide 11 cyclized using linker c]
- cellular uptake efficiency (flow cytometry) in the presence of serum ([5]; 10% fetal bovine serum, 5, 10, 20 µM, Fig. S5): same tendency as in the absence of serum
- cellular uptake efficiency (flow cytometry) ([5]; FITC-labelled peptides 10 µM, 4 h, 37 °C, absence of serum, trypsin wash, FACS, Fig. 4C): best uptake; also recorded: better cellular uptake than the thioether cyclic peptide
- cellular uptake efficiency (flow cytometry) [6]: best uptake

- AMC release / susceptibility to caspase-3 in vitro [3]: not a suitable substrate for caspase-3
- AMC release in cell lysate pretreated with pan caspase inhibitor FMK ([7]; U2OS lysate, FMK 100 µM): reduced significantly
- time-dependent AMC release in cell lysate ([7]; lysate of U2OS cells induced with ABT-737 (10 µM, 1 h), without FMK, triplicates): increased gradually during 24 h
Molecule: cyclo-i-Met-Asp-Nle-Met-Asp-AMC (sidechain bridge or staple) [17i, Met bis-alkylated peptide 17 with linker i]
- caspase-3 activity (AMC release) in live cells [8]: higher caspase-3 activity than the linear peptide 16, while lower than 19
- AMC fluorescence in cells (confocal) in the presence of serum ([9]; peptide 50 µM 4 h with 10% fetal bovine serum, GSH 10 mM 16 h, ABT-737 10 µM 1 h, Fig. S7A): weaker fluorescence intensity
- AMC fluorescence in cells (confocal, 405 nm excitation) ([9]; peptide 100 µM 4 h in FBS free medium, then 10 mM GSH 8, 16 or 24 h, then ABT-737 10 µM 1 h, Fig. 5E, S7B): lighted gradually
